Read-outs that look alike come from different tables or passages of the source.
How the values were obtained:
[1] = system: TNF-α secretion by LPS-treated THP1 cells; test: Lipopolysaccharide-activated THP1 cell TNF production assay; format: cell-based; conditions: Homo sapiens, THP-1; LPS, 3 hours, THP1 cells; read-out: IC50 in the THP-1 cellular TNF production assay
Method: Lipopolysaccharide-Activated THP1 Cell TNF Production Assay
THP1 cells were resuspended in fresh THP1 media (RPMI 1640, 10% heat-inactivated FBS, 1×PGS, 1×NEAA, plus 30 μM βME) at a concentration of 1.5×10^6 cells per mL. One hundred microliters of cells per well were plated in a polystyrene 96-well tissue culture plate. 1.5 micrograms per mL of bacterial LPS was prepared in THP1 media and transferred to the first 11 columns of a 96-well polypropylene plate. Column 12 contained only THP1 media for the LO control. Compounds were dissolved in 100% DMSO and serially diluted 3 fold in a polypropylene 96-well microtiter plate (drug plate). Columns 6 and 12 were reserved as controls (HI controls and LO controls respectively) and contained only DMSO. 10 μL of LPS followed by one microliter of inhibitor compound from the drug plate was transferred to the cell plate. The treated cells were induced to synthesize and secrete TNF-α in a 37° C. humidified incubator with 5% CO2 for 3 hours. Fifty microliters of conditioned media was transferred to a 96-well MULTI-ARRAY™ 96-well small spot plate—custom coated with MAB610 containing 100 μL of 2× Read Buffer P supplemented with 0.34 nM AF210NA polyclonal Ab labeled with ruthenium (MSD-Sulfo-TAG™-NHS ester). After an overnight incubation at room temperature with shaking, the reaction was read on the Sector Imager™ 6000. […] The amount of secreted TNF-α in the presence of AMG compounds compared with that in the presence of DMSO vehicle alone (HI control) was calculated using the formula: % control (POC)=(cpd−average LO)/(average HI−averageLO)*100. Data (consisting of POC and inhibitor concentration in μM) was fitted to a 4-parameter equation (y=A+((B−A)/(1+((x/C)^D))), where A is the minimum y (POC) value, B is the maximum y (POC), C is the x (cpd concentration) at the point of inflection and D is the slope factor) using a Levenburg-Marquardt non-linear regression algorithm.

[2] = system: secreted IL-8 by whole blood activated with TNF-α; test: Inhibition of TNF-α induced IL-8 in 50% human whole blood; format: cell-based; conditions: TNF-α (1 nM) induced IL-8, 50% human whole blood, read-out: WB TNF/IL8 IC50
Method: Inhibition of TNF-α Induced IL-8 in 50% Human Whole Blood
Test compounds were evaluated in vitro for the ability to inhibit the production of secreted IL-8 by whole blood activated with TNF-α. Fresh human whole blood was obtained from healthy, non-medicated volunteers in sodium heparin tubes.
Compound Dilution—Assay Procedure
100 ul heparinized whole blood is plated into wells of 96 well flat bottom plates. 50 ul of either 4× compound or DMSO control (Final DMSO concentration is 0.1%) are added to the appropriate wells. Plates are incubated for 1 hour at 37 degrees Celsius. 50 ul of 4×TNF-α ([…], for a final concentration of 1 nM) or control (media alone) is added to the appropriate wells (Total volume=200 ul). Plates are incubated overnight (16-18 hours). 100 ul of supernatant is collected and stored in 96-well round bottom polypropylene plates at −80 degrees Celsius or assayed immediately for IL-8.
Cytokines are measured on antibody (Ab) sandwich ECL based 96-well detection plates. 20 ul of supernatant are added to plate and plate is sealed and shaken at RT for 1 hour. 130 ul of detection Ab cocktail is added and plates are sealed and shaken for 1 hour in the dark at RT. Plates are read on MSD Sector HTS instrument. Data are analyzed and IC50 values generated using Activity Base and XI-fit programs.

Row | IC50 [1] | IC50 ([2]; Homo sapiens) | IC50 [2] | Structure (SMILES)
1 | ≤ 175 nM | ≤ 100 nM | 60 nM | Cc1ccc(N)cc1-c1cc2cnn(-c3c(F)cccc3F)c2n(C)c1=O [Example 39, 5-(5-amino-2-methylphenyl)-1-(2,6-difluorophenyl)-7-methyl-1,7-dihydro-6H-pyrazolo[3,4-b]pyridin-6-one]
2 | ≤ 175 nM | ≥ 2500 nM |  | Cn1c(=O)c(-c2cc(C(=O)O)ccc2Cl)cc2cnn(-c3c(F)cccc3F)c21 [Example 42, 4-chloro-3-(1-(2,6-difluorophenyl)-7-methyl-6-oxo-6,7-dihydro-1H-pyrazolo[3,4-b]pyridin-5-yl)benzoic acid]
3 | ≤ 175 nM | 326 nM |  | Cc1ccc(N)cc1-c1cc2cnn(-c3ccc(F)cc3F)c2n(C)c1=O [Example 37, 5-(5-amino-2-methylphenyl)-1-(2,4-difluorophenyl)-7-methyl-1,7-dihydro-6H-pyrazolo[3,4-b]pyridin-6-one]
4 | ≤ 175 nM | 327 nM |  | Cn1c(=O)c(-c2cc(N)ccc2Cl)cc2cnn(-c3c(F)cccc3F)c21 [Example 48, 5-(5-amino-2-chlorophenyl)-1-(2,6-difluorophenyl)-7-methyl-1,7-dihydro-6H-pyrazolo[3,4-b]pyridin-6-one]
5 | ≤ 175 nM | 261 nM |  | Cc1ccc(NC(=O)NC2CC2)cc1-c1cc2cnn(-c3c(F)cccc3F)c2n(C)c1=O [Example 36, 1-cyclopropyl-3-(3-(1-(2,6-difluorophenyl)-7-methyl-6-oxo-6,7-dihydro-1H-pyrazolo[3,4-b]pyridin-5-yl)-4-methylphenyl)urea]
6 | ≤ 175 nM | ≤ 100 nM | 73.6 nM | Cc1ccc(NC(=O)C2CC2)cc1-c1cc2cnn(-c3ccc(F)cc3F)c2n(C)c1=O [Example 16, N-(3-(1-(2,4-difluorophenyl)-7-methyl-6-oxo-6,7-dihydro-1H-pyrazolo[3,4-b]pyridin-5-yl)-4-methylphenyl)cyclopropanecarboxamide]
7 |  | ≥ 2500 nM |  | Cc1ccc(I)cc1-c1cc2cnn(-c3ccc(F)cc3F)c2n(C)c1=O [Example 43, 1-(2,4-difluorophenyl)-5-(5-iodo-2-methylphenyl)-7-methyl-1,7-dihydro-6H-pyrazolo[3,4-b]pyridin-6-one]

Reference: patent publication US7846944B2, “Pyrazolo-pyridinone compounds and methods of use thereof” (Amgen Inc., priority 2007, dated 2010)
